Blank lines part the entries; values can stand above or below the compound they belong to.
Target: T1, BRM (Homo sapiens, UniProt P51531)
T1 construct: In-Cell Western Screen of BRM Degradation in SW1573 Cells; endogenous in cells; host or cells: SW1573
Test: In-cell Western screen of BRM degradation in SW1573 cells (Dmax and DC50)
Format: cell-based
Settings: for Dmax: SW1573, % degraded, when tested at the top concentration of between 0.3 and 10 μM, read-out: BRM Dmax (%); for DC50: target protein degradation, read-out: BRM DC50
Outline: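 Overnight compound treatment (18-20 h, final DMSO 0.1%) of SW1573 cells in DMEM with 10% FBS precedes fixation and in-cell Western staining with 800/680 nm dye-labelled secondaries. Plate images give DC50 and maximal degradation.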

T1 sequence (P51531 whole entry): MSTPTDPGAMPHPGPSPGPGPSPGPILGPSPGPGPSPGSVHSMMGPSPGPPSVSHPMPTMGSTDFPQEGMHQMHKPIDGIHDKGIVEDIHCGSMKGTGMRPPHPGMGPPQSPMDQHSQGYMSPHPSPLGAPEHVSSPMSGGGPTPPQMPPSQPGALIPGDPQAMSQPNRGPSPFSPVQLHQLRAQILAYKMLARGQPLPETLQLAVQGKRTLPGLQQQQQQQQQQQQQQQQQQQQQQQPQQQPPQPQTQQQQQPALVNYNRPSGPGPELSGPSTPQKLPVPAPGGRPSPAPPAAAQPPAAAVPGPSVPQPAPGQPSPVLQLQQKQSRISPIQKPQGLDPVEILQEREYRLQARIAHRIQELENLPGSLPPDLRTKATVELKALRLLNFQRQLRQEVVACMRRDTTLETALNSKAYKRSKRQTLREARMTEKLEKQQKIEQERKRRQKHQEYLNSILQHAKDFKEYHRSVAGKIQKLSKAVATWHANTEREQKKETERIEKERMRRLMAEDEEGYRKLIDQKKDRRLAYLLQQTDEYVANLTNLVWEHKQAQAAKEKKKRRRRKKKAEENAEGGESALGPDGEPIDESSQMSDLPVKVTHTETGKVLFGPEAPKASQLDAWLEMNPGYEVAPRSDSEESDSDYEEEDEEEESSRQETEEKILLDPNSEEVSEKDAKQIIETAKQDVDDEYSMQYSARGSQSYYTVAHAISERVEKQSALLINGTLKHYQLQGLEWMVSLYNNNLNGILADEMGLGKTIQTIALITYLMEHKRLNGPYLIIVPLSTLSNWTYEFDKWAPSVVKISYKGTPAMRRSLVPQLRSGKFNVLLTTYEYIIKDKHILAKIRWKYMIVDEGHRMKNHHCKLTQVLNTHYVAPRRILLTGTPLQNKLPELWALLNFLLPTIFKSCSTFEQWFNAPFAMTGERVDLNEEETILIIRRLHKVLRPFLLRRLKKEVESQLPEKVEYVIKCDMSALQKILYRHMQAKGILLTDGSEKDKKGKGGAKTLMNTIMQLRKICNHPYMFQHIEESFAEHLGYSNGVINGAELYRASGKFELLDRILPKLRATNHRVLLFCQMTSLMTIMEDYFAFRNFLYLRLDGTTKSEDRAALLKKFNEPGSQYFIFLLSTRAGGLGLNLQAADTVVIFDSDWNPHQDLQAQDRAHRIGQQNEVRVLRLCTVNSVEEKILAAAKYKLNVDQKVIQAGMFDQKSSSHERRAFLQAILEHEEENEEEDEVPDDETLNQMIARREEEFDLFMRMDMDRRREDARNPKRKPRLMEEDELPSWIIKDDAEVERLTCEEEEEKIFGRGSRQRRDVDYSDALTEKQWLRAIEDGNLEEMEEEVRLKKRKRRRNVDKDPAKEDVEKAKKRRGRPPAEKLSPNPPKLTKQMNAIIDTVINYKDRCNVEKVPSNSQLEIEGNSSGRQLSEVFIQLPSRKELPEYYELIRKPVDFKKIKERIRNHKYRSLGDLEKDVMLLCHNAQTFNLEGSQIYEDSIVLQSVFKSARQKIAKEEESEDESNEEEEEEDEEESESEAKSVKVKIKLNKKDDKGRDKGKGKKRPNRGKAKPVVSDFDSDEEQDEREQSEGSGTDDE

SMILES: Cc1ncsc1-c1ccc([C@H](C)NC(=O)[C@@H]2C[C@@H](O)CN2C(=O)[C@H](c2cc(OCCC3CCN(C(=O)[C@H]4C[C@@H](CN5CCC([C@H](C)n6cc(-c7cc(-c8ccccc8O)nnc7N)cn6)CC5)C4)CC3)no2)C(C)C)cc1 [compound 449, (2S,4R)-1-((S)-2-(3-(2-(1-((1R,3R)-3-((4-((S)-1-(4-(3-amino-6-(2-hydroxyphenyl)pyridazin-4-yl)-1H-pyrazol-1-yl)ethyl)piperidin-1-yl)methyl)cyclobutane-1-carbonyl)piperidin-4-yl)ethoxy)isoxazol-5-yl)-3-methylbutanoyl)-4-hydroxy-N-((S)-1-(4-(4-methylthiazol-5-yl)phenyl)ethyl)pyrrolidine-2-carboxamide]
- Dmax: > 75%
- DC50: < 2.5 nM

SMILES: Cc1ncsc1-c1ccc([C@H](C)NC(=O)[C@@H]2C[C@@H](O)CN2C(=O)[C@@H](c2cc(OCCC3CCN(C(=O)[C@H]4C[C@@H](CN5CCC([C@H](C)n6cc(-c7cc(-c8ccccc8O)nnc7N)cn6)CC5)C4)CC3)no2)C(C)C)cc1 [compound 450, (2S,4R)-1-((R)-2-(3-(2-(1-((1R,3S)-3-((4-((S)-1-(4-(3-amino-6-(2-hydroxyphenyl)pyridazin-4-yl)-1H-pyrazol-1-yl)ethyl)piperidin-1-yl)methyl)cyclobutane-1-carbonyl)piperidin-4-yl)ethoxy)isoxazol-5-yl)-3-methylbutanoyl)-4-hydroxy-N-((S)-1-(4-(4-methylthiazol-5-yl)phenyl)ethyl)pyrrolidine-2-carboxamide]
- Dmax: > 75%
- DC50: 10 to 30 nM

SMILES: Cc1ncsc1-c1ccc([C@H](C)NC(=O)[C@@H]2C[C@@H](O)CN2C(=O)[C@H](c2cc(N3CCN(CC4CCN(C[C@H]5C[C@H](Oc6cc(N7C8CCC7CN(c7cc(-c9ccccc9O)nnc7N)C8)ccn6)C5)CC4)CC3)no2)C(C)C)cc1 [compound 457, (2S,4R)-1-((2S)-2-(3-(4-((1-(((1r,3r)-3-((4-(3-(3-amino-6-(2-hydroxyphenyl)pyridazin-4-yl)-3,8-diazabicyclo[3.2.1]octan-8-yl)pyridin-2-yl)oxy)cyclobutyl)methyl)piperidin-4-yl)methyl)piperazin-1-yl)isoxazol-5-yl)-3-methylbutanoyl)-4-hydroxy-N-((S)-1-(4-(4-methylthiazol-5-yl)phenyl)ethyl)pyrrolidine-2-carboxamide]
- Dmax: > 75%
- DC50: < 2.5 nM

SMILES: Cc1ncsc1-c1ccc([C@H](C)NC(=O)[C@@H]2C[C@@H](O)CN2C(=O)[C@@H](c2cc(N3CCN(CC4CCN(C[C@H]5C[C@H](Oc6cc(N7C8CCC7CN(c7cc(-c9ccccc9O)nnc7N)C8)ccn6)C5)CC4)CC3)no2)C(C)C)cc1 [compound 458, (2S,4R)-1-((2R)-2-(3-(4-((1-(((1r,3r)-3-((4-(3-(3-amino-6-(2-hydroxyphenyl)pyridazin-4-yl)-3,8-diazabicyclo[3.2.1]octan-8-yl)pyridin-2-yl)oxy)cyclobutyl)methyl)piperidin-4-yl)methyl)piperazin-1-yl)isoxazol-5-yl)-3-methylbutanoyl)-4-hydroxy-N-((S)-1-(4-(4-methylthiazol-5-yl)phenyl)ethyl)pyrrolidine-2-carboxamide]
- Dmax: > 75%
- DC50: < 2.5 nM

SMILES: Cc1ncsc1-c1ccc([C@H](C)NC(=O)[C@@H]2C[C@@H](OP(=O)(O)O)CN2C(=O)[C@@H](c2cc(OCCN3CCC(O[C@H]4C[C@H](Oc5cc(N6C7CCC6CN(c6cc(-c8ccccc8O)nnc6N)C7)ccn5)C4)CC3)no2)C(C)C)cc1 [compound 459, (3R,5S)-1-((2R)-2-(3-(2-(4-((1r,3R)-3-((4-(3-(3-amino-6-(2-hydroxyphenyl)pyridazin-4-yl)-3,8-diazabicyclo[3.2.1]octan-8-yl)pyridin-2-yl)oxy)cyclobutoxy)piperidin-1-yl)ethoxy)isoxazol-5-yl)-3-methylbutanoyl)-5-(((S)-1-(4-(4-methylthiazol-5-yl)phenyl)ethyl)carbamoyl)pyrrolidin-3-yl dihydrogen phosphate]
- Dmax: > 75%
- DC50: < 2.5 nM

SMILES: COCCOCCOCCOCCOCCOCCOCCOCCOCCOCCOCCOCCOCCOCCOCCOCCOCCOCCOCCOCCOCCOCCOC(=O)CCC(=O)O[C@@H]1C[C@@H](C(=O)N[C@@H](C)c2ccc(-c3scnc3C)cc2)N(C(=O)[C@@H](c2cc(OCCN3CCC(O[C@H]4C[C@H](Oc5cc(N6C7CCC6CN(c6cc(-c8ccccc8O)nnc6N)C7)ccn5)C4)CC3)no2)C(C)C)C1 [compound 460, (3R,5S)-1-((2R)-2-(3-(2-(4-((1r,3R)-3-((4-(3-(3-amino-6-(2-hydroxyphenyl)pyridazin-4-yl)-3,8-diazabicyclo[3.2.1]octan-8-yl)pyridin-2-yl)oxy)cyclobutoxy)piperidin-1-yl)ethoxy)isoxazol-5-yl)-3-methylbutanoyl)-5-(((S)-1-(4-(4-methylthiazol-5-yl)phenyl)ethyl)carbamoyl) pyrrolidin-3-yl (2,5,8,11,14,17,20,23,26,29,32,3 5,38,41,44,47,50,53,56,59,62,65-docosaoxaheptahexacontan-67-yl) succinate]
- Dmax: > 75%
- DC50: < 2.5 nM

The next lines start with the values.

- Dmax: > 75%
- DC50: < 2.5 nM
SMILES: Cc1ncsc1-c1ccc([C@H](C)NC(=O)[C@@H]2C[C@@H](O)CN2C(=O)[C@H](c2cc(OCCC3CCN(C(=O)[C@H]4C[C@@H](CN5CCC([C@@H](C)n6cc(-c7cc(-c8ccccc8O)nnc7N)cn6)CC5)C4)CC3)no2)C(C)C)cc1 [compound 451, (2S,4R)-1-((S)-2-(3-(2-(1-((1S,3R)-3-((4-((R)-1-(4-(3-amino-6-(2-hydroxyphenyl)pyridazin-4-yl)-1 H-pyrazol-1-yl)ethyl)piperidin-1-yl)methyl)cyclobutane-1-carbonyl)piperidin-4-yl)ethoxy)isoxazol-5-yl)-3-methylbutanoyl)-4-hydroxy-N-((S)-1-(4-(4-methylthiazol-5-yl)phenyl)ethyl)pyrrolidine-2-carboxamide]

- Dmax: > 75%
- DC50: 10 to 30 nM
SMILES: Cc1ncsc1-c1ccc([C@H](C)NC(=O)[C@@H]2C[C@@H](O)CN2C(=O)[C@@H](c2cc(OCCC3CCN(C(=O)[C@H]4C[C@@H](CN5CCC([C@@H](C)n6cc(-c7cc(-c8ccccc8O)nnc7N)cn6)CC5)C4)CC3)no2)C(C)C)cc1 [compound 452, (2S,4R)-1-((R)-2-(3-(2-(1-((1S,3S)-3-((4-((R)-1-(4-(3-amino-6-(2-hydroxyphenyl)pyridazin-4-yl)-1H-pyrazol-1-yl)ethyl)piperidin-1-yl)methyl)cyclobutane-1-carbonyl)piperidin-4-yl)ethoxy)isoxazol-5-yl)-3-methylbutanoyl)-4-hydroxy-N-((S)-1-(4-(4-methylthiazol-5-yl)phenyl)ethyl)pyrrolidine-2-carboxamide]

- Dmax: > 75%
- DC50: < 2.5 nM
SMILES: Cc1ncsc1-c1ccc([C@H](C)NC(=O)[C@@H]2C[C@@H](O)CN2C(=O)[C@H](c2cc(OCCC3CCN(C(=O)[C@H]4C[C@H](CN5CCC([C@H](C)n6cc(-c7cc(-c8ccccc8O)nnc7N)cn6)CC5)C4)CC3)no2)C(C)C)cc1 [compound 453, (2S,4R)-1-((S)-2-(3-(2-(1-((1S,3S)-3-((4-((S)-1-(4-(3-amino-6-(2-hydroxyphenyl)pyridazin-4-yl)-1H-pyrazol-1-yl)ethyl)piperidin-1-yl)methyl)cyclobutane-1-carbonyl)piperidin-4-yl)ethoxy)isoxazol-5-yl)-3-methylbutanoyl)-4-hydroxy-N-((S)-1-(4-(4-methylthiazol-5-yl)phenyl)ethyl)pyrrolidine-2-carboxamide]

- DC50: > 30 nM
SMILES: Cc1ncsc1-c1ccc([C@H](C)NC(=O)[C@@H]2C[C@@H](O)CN2C(=O)[C@@H](c2cc(OCCC3CCN(C(=O)[C@H]4C[C@H](CN5CCC([C@H](C)n6cc(-c7cc(-c8ccccc8O)nnc7N)cn6)CC5)C4)CC3)no2)C(C)C)cc1 [compound 454, (2S,4R)-1-((R)-2-(3-(2-(1-((1S,3R)-3-((4-((S)-1-(4-(3-amino-6-(2-hydroxyphenyl)pyridazin-4-yl)-1H-pyrazol-1-yl)ethyl)piperidin-1-yl)methyl)cyclobutane-1-carbonyl)piperidin-4-yl)ethoxy)isoxazol-5-yl)-3-methylbutanoyl)-4-hydroxy-N-((S)-1-(4-(4-methylthiazol-5-yl)phenyl)ethyl)pyrrolidine-2-carboxamide]

- Dmax: > 75%
- DC50: < 2.5 nM
SMILES: Cc1ncsc1-c1ccc([C@H](C)NC(=O)[C@@H]2C[C@@H](O)CN2C(=O)[C@H](c2cc(OCCC3CCN(C(=O)[C@H]4C[C@H](CN5CCC([C@@H](C)n6cc(-c7cc(-c8ccccc8O)nnc7N)cn6)CC5)C4)CC3)no2)C(C)C)cc1 [compound 455, (2S,4R)-1-((S)-2-(3-(2-(1-((1R,3S)-3-((4-((R)-1-(4-(3-amino-6-(2-hydroxyphenyl)pyridazin-4-yl)-1H-pyrazol-1-yl)ethyl)piperidin-1-yl)methyl)cyclobutane-1-carbonyl)piperidin-4-yl)ethoxy)isoxazol-5-yl)-3-methylbutanoyl)-4-hydroxy-N-((S)-1-(4-(4-methylthiazol-5-yl)phenyl)ethyl)pyrrolidine-2-carboxamide]

- DC50: > 30 nM
SMILES: Cc1ncsc1-c1ccc([C@H](C)NC(=O)[C@@H]2C[C@@H](O)CN2C(=O)[C@@H](c2cc(OCCC3CCN(C(=O)[C@H]4C[C@H](CN5CCC([C@@H](C)n6cc(-c7cc(-c8ccccc8O)nnc7N)cn6)CC5)C4)CC3)no2)C(C)C)cc1 [compound 456, (2S,4R)-1-((R)-2-(3-(2-(1-((1R,3R)-3-((4-((R)-1-(4-(3-amino-6-(2-hydroxyphenyl)pyridazin-4-yl)-1H-pyrazol-1-yl)ethyl)piperidin-1-yl)methyl)cyclobutane-1-carbonyl)piperidin-4-yl)ethoxy)isoxazol-5-yl)-3-methylbutanoyl)-4-hydroxy-N-((S)-1-(4-(4-methylthiazol-5-yl)phenyl)ethyl)pyrrolidine-2-carboxamide]
